Where two headings read alike, the source gives them in different places.
Key:
T-47D = assay: Panel A proliferation assay (CellTiter-Glo); HER2 Gain <5, KRAS WT, PIK3CA p.H1047R; format: cell-based, human; conditions: for IC50: Homo sapiens, T47D
Description: (§1) A total of 15 breast cancer cell lines were used in this study. These cells were cultured in RPMI-1640 and supplemented with 5% or 10% fetal bovine serum, 2 mM GlutaMAX™ and 1 mM sodium pyruvate, or in growth medium recommended by the suppliers [American Type Culture Collection, Manassas, Va., USA; Developmental Therapeutics Program, National Cancer Institute, Bethesda, Md., USA; German Collection of Microorganisms and Cell Cultures (DSMZ), Braunschweig, Germany; European Collection of Cell Cultures (ECACC), Porton Down, UK]. Cells of each line were seeded into a 384-well microtiter plate at two cell densities. Low density ranges were 300-1800 cells/well, and a high density was 600 to 3600 cells/well). The plating density was determined by the rate of proliferation of the cell line in the absence of any inhibitor and varied amongst cell lines. High plating densities were double that of low density. Each cell density was plated in triplicate. In total there were 30 wells to be treated with increasing concentrations of Compound B for each cell line at each density. In addition, there were 24 wells of dimethyl sulfoxide (DMSO)-treated controls at each density. After seeding, the cells were incubated at 37° C. in 5% CO2 for 24 hours. Subsequently, Compound B was added to each cell line with 10 concentrations. The dosing solution of Compound B was first prepared in DMSO at a master stock concentration of 10 mM. […] were then made of the stock solution to give a range of working stock concentrations; 10.00 mM, 3.164 mM, 1.001 mM, 316.9 μM, 100.3 μM, 31.74 μM, 10.04 μM, 3.178 μM, 1.006 μM and 318.3 nM. The working stock concentrations of Compound B were then dispensed into the seeded cancer cell lines using a Biomek FX liquid handler to give final treatment concentrations of 0.1% of the stock concentration. A similar volume of DMSO without Compound B was dispensed into the 24 control wells of each seeding density at a concentration of 0.1%. Also, a zero-time plate prepared with a similar cell seeding was read for each cell line at each seeding density immediately after the addition of the DMSO control. After a 72 h incubation, an equal volume of the CellTiter-Glo (CellTiter-Glo Luminescent Cell Viability Assay, Promega, Madison, Wis.) to that of the cell culture medium was added into each well of the plate. After the contents were mixed to induce cell lysis and stabilization, cell luminescence was recorded using a SpectraMax M5^e (Molecular Devices, Sunnyvale, Calif., USA)
(§2) The luminescence of Compound B treated cells was compared relative to the average of the 24 DMSO-treated control wells at each cell density for every concentration of Compound B for all triplicate wells. The percent intensity values were used in model 205 of XLfit in Microsoft Excel to calculate gIC50s for the low and high seeding density (a 4 parameter logistical fit). Specifically, the midpoint of the growth window (the gIC50) falls half way between the number of cells at the time of compound addition (T=0) and the growth of control cells treated with DMSO. The gIC50 value serves as a metric for measuring the inhibition of proliferation in cancer cells. […] Finally, where data quality permits, the Ymin values (defined as the maximum growth inhibition relative to the cell density at Time-zero) were calculated as a measure of cytotoxicity where data were of reasonable quality.

PI3K family of enzymes = assay: Selectivity in a large panel of protein kinases; format: biochemical
EFM-19 = assay: Panel A proliferation assay (CellTiter-Glo); HER2 Gain <5, KRAS WT, PIK3CA p.H1047L; format: cell-based, human; conditions: for IC50: Homo sapiens
Description: as §1, §2

SK-BR-3 = assay: Panel A proliferation assay (CellTiter-Glo); HER2 Gain ≧5, KRAS WT, PIK3CA WT; format: cell-based, human; conditions: for IC50: Homo sapiens
Description: as §1
(§3) The luminescence of Compound B treated cells was compared relative to the average of the 24 DMSO-treated control wells at each cell density for every concentration of Compound B for all triplicate wells. The percent intensity values were used in model 205 of XLfit in Microsoft Excel to calculate gIC50s for the low and high seeding density (a 4 parameter logistical fit). Specifically, the midpoint of the growth window (the gIC50) falls half way between the number of cells at the time of compound addition (T=0) and the growth of control cells treated with DMSO. The gIC50 value serves as a metric for measuring the inhibition of proliferation in cancer cells. The curves for each seeding density for each cell line were manually inspected for both data quality and appropriateness of curve fitting. Where the starting data were poor the curve and subsequent gIC50s were excluded from further analysis. Cell line seedings were considered of poor quality when the r^2 value of the fitted curve was <0.75. Finally, where data quality permits, the Ymin values (defined as the maximum growth inhibition relative to the cell density at Time-zero) were calculated as a measure of cytotoxicity where data were of reasonable quality.

UACC-812 = assay: as above; format: cell-based, human; conditions: for IC50: Homo sapiens
Description: as §1, §3

MDA-MB-175-VII = assay: Panel A proliferation assay (CellTiter-Glo); HER2 2 copies, KRAS WT, PIK3CA WT; format: cell-based, human; conditions: for IC50: Homo sapiens
Description: as §1, §3

ZR-75-1 = assay: as above; format: cell-based, human; conditions: for IC50: Homo sapiens
Description: as §1, §3

MCF7 = assay: Panel A proliferation assay (CellTiter-Glo); HER2 Loss 1 copy, KRAS WT, PIK3CA p.E545K; format: cell-based, human; conditions: for IC50: Homo sapiens
Description: as §1, §2

[1] = high seeding density, 72 h, read-out: High Density gIC50
[2] = low seeding density, 72 h, read-out: Low Density gIC50
[3] = mean of low and high density, read-out: Mean gIC50
[4] = high density, % of cells at T = 0
[5] = low density, % of cells at T = 0

## COc1ncc(-c2ccc3nccc(-c4ccnnc4)c3c2)cc1NS(=O)(=O)c1ccc(F)cc1F [Compound B, 2,4-difluoro-N-{2-(methyloxy)-5-[4-(4-pyridazinyl)-6-quinolinyl]-3-pyridinyl}benzenesulfonamide]
T-47D; [1]
  IC50: 1.8 nM
T-47D; [2]
  IC50: 1.1 nM
T-47D; [3]
  IC50: 1.45 nM
T-47D; [4]
  High Density Y-Min: 103.6%
T-47D; [5]
  Low Density Y-Min: 104.6%
PI3K family of enzymes
  selectivity for the PI3K family of enzymes: good selectivity
EFM-19; EFM-19, high density, % of cells at T = 0
  High Density Y-Min: 22.7%
EFM-19; EFM-19, low density, % of cells at T = 0
  Low Density Y-Min: 24.1%
EFM-19; EFM-19, high seeding density, 72 h, read-out: High Density gIC50
  IC50: 0.5 nM
EFM-19; EFM-19, low seeding density, 72 h, read-out: Low Density gIC50
  IC50: 0.6 nM
EFM-19; EFM-19, mean of low and high density, read-out: Mean gIC50
  IC50: 0.55 nM
SK-BR-3; SK-BR-3, high seeding density, 72 h, read-out: High Density gIC50
  IC50: 4.2 nM
SK-BR-3; SK-BR-3, low seeding density, 72 h, read-out: Low Density gIC50
  IC50: 2.9 nM
SK-BR-3; SK-BR-3, mean of low and high density, read-out: Mean gIC50
  IC50: 3.55 nM
SK-BR-3; SK-BR-3, high density, % of cells at T = 0
  High Density Y-Min: 54.5%
SK-BR-3; SK-BR-3, low density, % of cells at T = 0
  Low Density Y-Min: 52.3%
UACC-812; UACC-812, high seeding density, 72 h, read-out: High Density gIC50
  IC50: 0.1 nM
UACC-812; UACC-812, low seeding density, 72 h, read-out: Low Density gIC50
  IC50: 0.1 nM
UACC-812; UACC-812, mean of low and high density, read-out: Mean gIC50
  IC50: 0.1 nM
UACC-812; UACC-812, high density, % of cells at T = 0
  High Density Y-Min: 12.6%
UACC-812; UACC-812, low density, % of cells at T = 0
  Low Density Y-Min: 12.1%
MDA-MB-175-VII; [1]
  IC50: 1.1 nM
MDA-MB-175-VII; [2]
  IC50: 1.7 nM
MDA-MB-175-VII; [3]
  IC50: 1.4 nM
MDA-MB-175-VII; [4]
  High Density Y-Min: 12.2%
MDA-MB-175-VII; [5]
  Low Density Y-Min: 19.8%
ZR-75-1; ZR-75-1, high seeding density, 72 h, read-out: High Density gIC50
  IC50: 0.9 nM
ZR-75-1; ZR-75-1, low seeding density, 72 h, read-out: Low Density gIC50
  IC50: 0.8 nM
ZR-75-1; ZR-75-1, mean of low and high density, read-out: Mean gIC50
  IC50: 0.85 nM
ZR-75-1; ZR-75-1, high density, % of cells at T = 0
  High Density Y-Min: 22.1%
ZR-75-1; ZR-75-1, low density, % of cells at T = 0
  Low Density Y-Min: 19.8%
MCF7; MCF7, high seeding density, 72 h, read-out: High Density gIC50
  IC50: 1.1 nM
MCF7; MCF7, low seeding density, 72 h, read-out: Low Density gIC50
  IC50: 2.5 nM
MCF7; MCF7, mean of low and high density, read-out: Mean gIC50
  IC50: 1.8 nM
MCF7; MCF7, high density, % of cells at T = 0
  High Density Y-Min: 82.2%
MCF7; MCF7, low density, % of cells at T = 0
  Low Density Y-Min: 78.5%

Reference: US20130317037A1, “METHOD OF ADMINISTRATION AND TREATMENT” (GlaxoSmithKline Intellectual Property Development Limited, priority 2010, published 2013)
